From patent publication US9062026B2, “Fused pyrimidines and substituted quinazolines as inhibitors of p97” (Cleave Biosciences, Inc., priority 2012, dated 2015) come the findings set out here.

The structures appear in SMILES notation.

One assay deals with p97 (Homo sapiens (Human), UniProt P55072). Nature of the assay: P97 ATPase biochem assay (ADP Glo). Type of assay: biochemical. Particulars: 20 nM p97, 20 μM ATP, 37° C., 15 minutes; read-out: p97 biochem IC50. The protocol: The ATPase assay is performed according the following protocol: Purified enzyme (20 nM p97), substrate (20 μM ATP) and a dose titration of compounds are mixed in buffer (50 mM TRIS pH 7.5, 20 mM MgCl2, 0.02% TX-100, 1 mM DTT, 0.2% (v/v) glycerol) and incubated at 37° C. for 15 minutes. The reaction is terminated and the level of product generated is measured using the ADP Glo Assay Kit (Promega, Madison Wis.). Plotting product generated versus compound concentration and using a four-parameter fit model generates an IC50 value for each compounds.
Chain of p97 (P55072 whole entry): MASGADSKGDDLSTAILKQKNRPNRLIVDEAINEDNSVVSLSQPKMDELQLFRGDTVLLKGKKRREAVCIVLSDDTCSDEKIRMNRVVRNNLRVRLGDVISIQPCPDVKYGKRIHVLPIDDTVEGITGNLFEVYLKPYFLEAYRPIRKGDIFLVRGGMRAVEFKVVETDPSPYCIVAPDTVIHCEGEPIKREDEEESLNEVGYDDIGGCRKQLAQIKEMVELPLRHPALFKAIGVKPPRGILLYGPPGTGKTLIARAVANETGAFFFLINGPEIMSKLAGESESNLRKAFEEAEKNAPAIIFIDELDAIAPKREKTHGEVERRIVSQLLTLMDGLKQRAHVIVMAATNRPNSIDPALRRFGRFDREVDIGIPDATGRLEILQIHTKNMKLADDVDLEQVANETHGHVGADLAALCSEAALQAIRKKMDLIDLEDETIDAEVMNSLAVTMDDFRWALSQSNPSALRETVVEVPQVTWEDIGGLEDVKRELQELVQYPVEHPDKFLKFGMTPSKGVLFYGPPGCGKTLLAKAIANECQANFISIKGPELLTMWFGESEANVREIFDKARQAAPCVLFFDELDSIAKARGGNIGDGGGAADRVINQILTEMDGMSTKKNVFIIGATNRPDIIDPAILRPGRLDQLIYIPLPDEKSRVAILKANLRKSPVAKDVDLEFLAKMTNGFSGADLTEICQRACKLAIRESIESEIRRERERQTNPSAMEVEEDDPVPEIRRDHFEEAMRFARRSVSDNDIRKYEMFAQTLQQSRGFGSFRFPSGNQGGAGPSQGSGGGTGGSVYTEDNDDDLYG
(In general: ADP-Glo first removes unused ATP, then detects ADP through luciferase.)
For orientation: IC50 means the concentration that gives 50% inhibition. Regarding `COc1nc2ccccc2n1-c1nc(NCc2ccccc2)c2c(n1)C(=O)NCC2`, the IC50 is below 5000 nM. On the same count and under the same terms, then `Cc1cc2ccccc2n1-c1nc2c(c(NCc3ccccc3)n1)CNC2`, with below 2000 nM. On to `COc1cccc2c(NCc3ccccc3)nc(C3c4ccccc4CN3C)nc12` (centres unmarked), for which the IC50 is below 10000 nM. Still for that read-out and setting: with `COc1cccc2c(NCc3ccccc3)nc(-n3c(OC)cc4ccccc43)nc12` [drawing 204] the figure was below 2000 nM. Still for that read-out and setting: with `NCc1cc2ccccc2n1-c1nc2c(c(NCc3ccccc3)n1)CCCC2` [drawing 219] the figure was below 2000 nM; with `COCCOc1cccc2c(NCc3ccccc3)nc(-n3c(OC)nc4ccccc43)nc12` [drawing 222], below 2000 nM; with `COc1cccc2c(NCc3ccccc3)nc(-n3c(CNC(C)=O)cc4ccccc43)nc12` [drawing 223], below 2000 nM. `COc1cc2ccccc2n1-c1nc2c(c(NCc3ccccc3)n1)CCCC2` [drawing 226]: the IC50 was below 2000 nM. Take `OCc1cc2ccccc2n1-c1nc2c(c(NCc3ccccc3)n1)CCCC2` [drawing 227]: the IC50 was below 2000 nM.

As for `CN(C)Cc1cc2ccccc2n1-c1nc2c(c(NCc3ccccc3)n1)CCCC2` [drawing 229], the IC50 was below 2000 nM. With `CC(=O)NCc1cc2ccccc2n1-c1nc2c(c(NCc3ccccc3)n1)CCCC2` [drawing 230], the IC50 was below 2000 nM.

As for `NC(=O)NCc1cc2ccccc2n1-c1nc2c(c(NCc3ccccc3)n1)CCCC2` [drawing 231], the IC50 was below 2000 nM.

For the compound `COC(=O)NCc1cc2ccccc2n1-c1nc2c(c(NCc3ccccc3)n1)CCCC2` [drawing 232], the IC50 is below 2000 nM. On the same count and under the same terms, with `CS(=O)(=O)NCc1cc2ccccc2n1-c1nc2c(c(NCc3ccccc3)n1)CCCC2` [drawing 233] the figure was below 2000 nM; with `COc1cccc2c(NCc3ccccc3)nc(-n3c(/C=C/C#N)cc4ccccc43)nc12` [drawing 242], below 2000 nM. Same read-out and setting: then `COc1cccc2c(NCc3ccccc3)nc(-n3c(/C=C(/C#N)C(N)=O)cc4ccccc43)nc12` [drawing 243], with below 2000 nM.

Turning to `COc1cccc2c(NCc3ccccc3)nc(-n3c(/C=C/S(C)(=O)=O)cc4ccccc43)nc12` [drawing 244], the IC50 is below 2000 nM.

The assay is the same for the next values; noted with them: read-out: p97 IC50.
On to `Cc1cc2c(C#N)cccc2n1-c1nc2c(c(NCc3ccccc3)n1)CCCC2` [1-[4-(benzylamino)-5,6,7,8-tetrahydroquinazolin-2-yl]-2-methyl-1H-indole-4-carbonitrile], for which the IC50 is below 100 nM. As to `COc1cc2c(C#N)cccc2n1-c1nc2c(c(NCc3ccccc3)n1)CNCC2` [1-[4-(benzylamino)-5H,6H,7H,8H-pyrido[4,3-d]pyrimidin-2-yl]-2-methoxy-1H-indole-4-carbonitrile], the IC50 was below 300 nM.

For `Cc1cc2c(C#N)cccc2n1-c1nc2c(c(NCc3ccccc3)n1)COCC2` [1-[4-(benzylamino)-5H,7H,8H-pyrano[4,3-d]pyrimidin-2-yl]-2-methyl-1H-indole-4-carbonitrile], the IC50 was below 100 nM. Same read-out and setting: then `COCC(=O)N1CCc2nc(-n3c(C)cc4c(C#N)cccc43)nc(NCc3ccccc3)c2C1` [1-[4-(benzylamino)-6-(2-methoxyacetyl)-5H,6H,7H,8H-pyrido[4,3-d]pyrimidin-2-yl]-2-methyl-1H-indole-4-carbonitrile], with below 30 nM; and `CCN1CCc2nc(-n3c(C)cc4c(C#N)cccc43)nc(NCc3ccccc3)c2C1` [1-[4-(benzylamino)-6-ethyl-5H,6H,7H,8H-pyrido[4,3-d]pyrimidin-2-yl]-2-methyl-1H-indole-4-carbonitrile], with below 100 nM; and `COCCOc1cccc2c(NCc3ccccc3)nc(-n3c(OC)cc4c(C#N)cccc43)nc12` [1-[4-(benzylamino)-8-(2-methoxyethoxy)quinazolin-2-yl]-2-methoxy-1H-indole-4-carbonitrile], with below 100 nM. Still for that read-out and setting: with `COCCOc1cccc2c(NCc3ccccc3)nc(-n3c(C)cc4c(C#N)cccc43)nc12` [1-[4-(benzylamino)-8-(2-methoxyethoxy)quinazolin-2-yl]-2-methyl-1H-indole-4-carbonitrile] the figure was below 30 nM; with `COCCOc1cccc2c(NCc3ccccc3)nc(-n3c(C(C)N)cc4ccccc43)nc12` (centres unmarked) [2-[2-(1-aminoethyl)-1H-indol-1-yl]-N-benzyl-8-(2-methoxyethoxy)quinazolin-4-amine], below 300 nM; with `COc1cccc2c(NCc3ccccc3)nc(-n3c(/C=C/C#N)cc4ccccc43)nc12` [(2E)-3-{1-[4-(benzylamino)-8-methoxyquinazolin-2-yl]-1H-indol-2-yl)prop-2-enenitrile], below 300 nM. The same measure, in the same setting: with `COc1cccc2c(NCc3ccccc3)nc(-n3c(/C=C(/C#N)C(N)=O)cc4ccccc43)nc12` [(2Z)-3-{1-[4-(benzylamino)-8-methoxyquinazolin-2-yl]-1H-indol-2-yl}-2-cyanoprop-2-enamide] the figure was below 100 nM; with `COc1cccc2c(NCc3ccccc3)nc(-n3c(/C=C\C#N)cc4ccccc43)nc12` [(2Z)-3-{1-[4-(benzylamino)-8-methoxyquinazolin-2-yl]-1H-indol-2-yl}prop-2-enenitrile], below 300 nM; with `COCCOc1cccc2c(NCc3ccccc3)nc(-n3c(CNC(N)=O)cc4ccccc43)nc12` [({1-[4-(benzylamino)-8-(2-methoxyethoxy)quinazolin-2-yl]-1H-indol-2-yl}methyl)urea], below 100 nM. Regarding `C#CC(=O)NCc1cc2ccccc2n1-c1nc2c(c(NCc3ccccc3)n1)CCCC2` [N-({1-[4-(benzylamino)-5,6,7,8-tetrahydroquinazolin-2-yl]-1H-indol-2-yl}methyl)prop-2-ynamide], the IC50 was below 100 nM.

As for `COCCOc1cccc2c(NCc3ccccc3)nc(-n3c(CNS(C)(=O)=O)cc4ccccc43)nc12` [N-({1-[4-(benzylamino)-8-(2-methoxyethoxy)quinazolin-2-yl]-1H-indol-2-yl}methyl)methanesulfonamide], the half-inhibitory concentration (IC50) is below 100 nM. Same read-out and setting: then `COc1cccc2c(NCc3ccccc3)nc(-n3c(CNC(C)=O)cc4ccccc43)nc12` [N-({1-[4-(benzylamino)-8-methoxyquinazolin-2-yl]-1H-indol-2-yl}methyl)acetamide], with below 300 nM; and `Clc1cc2ccccc2n1-c1nc2c(c(NCc3ccccc3)n1)CNCC2` [N-benzyl-2-(2-chloro-1H-indol-1-yl)-5H,6H,7H,8H-pyrido[4,3-d]pyrimidin-4-amine], with below 300 nM; and `COCCOc1cccc2c(NCc3ccccc3)nc(-n3c(OC)cc4ccccc43)nc12` [N-benzyl-2-(2-methoxy-1H-indol-1-yl)-8-(2-methoxyethoxy)quinazolin-4-amine], with below 100 nM. On the same count and under the same terms, with `Cc1nc2ccccc2n1-c1nc2c(c(NCc3ccccc3)n1)CCCC2` [N-benzyl-2-(2-methyl-1H-1,3-benzodiazol-1-yl)-5,6,7,8-tetrahydroquinazolin-4-amine] the figure was below 300 nM. The same measure, in the same setting: then `Cc1cc2ccccc2n1-c1nc2c(c(NCc3ccccc3)n1)COCC2` [N-benzyl-2-(2-methyl-1H-indol-1-yl)-5H,7H,8H-pyrano[4,3-d]pyrimidin-4-amine], with below 300 nM; and `Cc1cc2ccccc2n1-c1nc2c(c(NCc3ccccc3)n1)CN(C(C)C)CC2` [N-benzyl-2-(2-methyl-1H-indol-1-yl)-6-(propan-2-yl)-5H,6H,7H,8H-pyrido[4,3-d]pyrimidin-4-amine], with below 300 nM; and `Cc1[nH]c2ccccc2c1-c1nc2c(c(NCc3ccccc3)n1)CCCC2` [N-benzyl-2-(2-methyl-1H-indol-3-yl)-5,6,7,8-tetrahydroquinazolin-4-amine], with below 300 nM. `Cc1cc2c(Cl)cccc2n1-c1nc2c(c(NCc3ccccc3)n1)CNCC2` [N-benzyl-2-(4-chloro-2-methyl-1H-indol-1-yl)-5H,6H,7H,8H-pyrido[4,3-d]pyrimidin-4-amine]: the IC50 was below 300 nM.

In the case of `c1ccc(CNc2nc(-n3c(N4CCOCC4)nc4ccccc43)nc3c2CCCC3)cc1` [N-benzyl-2-[2-(morpholin-4-yl)-1H-1,3-benzodiazol-1-yl]-5,6,7,8-tetrahydroquinazolin-4-amine], the IC50 is below 300 nM.

Regarding `c1ccc(CNc2nc(-n3c(CN4CCOCC4)cc4ccccc43)nc3c2CCCC3)cc1` [N-benzyl-2-[2-(morpholin-4-ylmethyl)-1H-indol-1-yl]-5,6,7,8-tetrahydroquinazolin-4-amine], the IC50 was below 300 nM.

Regarding `COCCOc1cccc2c(NCc3ccccc3)nc(-n3c(CN(C)C)cc4ccccc43)nc12` [N-benzyl-2-{2-[(dimethylamino)methyl]-1H-indol-1-yl}-8-(2-methoxyethoxy)quinazolin-4-amine], the IC50 was below 100 nM. On the same count and under the same terms, with `Cc1nc2ccccn2c1-c1nc2c(c(NCc3ccccc3)n1)CCCC2` [N-benzyl-2-{2-methylimidazo[1,2-a]pyridin-3-yl}-5,6,7,8-tetrahydroquinazolin-4-amine] the figure was below 300 nM; with `COCCOc1cccc2c(NCc3ccccc3)nc(-n3c(C)nc4ccccc43)nc12` [N-benzyl-8-(2-methoxyethoxy)-2-(2-methyl-1H-1,3-benzodiazol-1-yl)quinazolin-4-amine], below 300 nM. With `COc1cccc2c(NCc3ccccc3)nc(-c3c(C)[nH]c4ccccc34)nc12` [N-benzyl-8-methoxy-2-(2-methyl-1H-indol-3-yl)quinazolin-4-amine], the IC50 was below 100 nM. Regarding `COCCOc1cccc2c(NCc3ccccc3)nc(-n3c(CNC(=O)OC)cc4ccccc43)nc12` [methyl N-({1-[4-(benzylamino)-8-(2-methoxyethoxy)quinazolin-2-yl]-1H-indol-2-yl}methyl)carbamate], the IC50 was below 300 nM. As to `OCc1nc2ccccc2n1-c1nc2c(c(NCc3ccccc3)n1)CCCC2` [{1-[4-(benzylamino)-5,6,7,8-tetrahydroquinazolin-2-yl]-1H-1,3-benzodiazol-2-yl}methanol], the IC50 is below 300 nM.
